Data on eight compounds can be found in ChEMBL document CHEMBL1201862, “PubChem BioAssay data set” (2004).

Test systems include NCI-H226; M14; NCI-H23; MOLT-4; SK-MEL-5; CCRF-CEM; MDA-N; TK-10; OVCAR-3; NCI/ADR-RES; HCT-15; PC-3; SF-268; SW-620; SK-MEL-28; A549; SK-MEL-2; SNB-19; HL-60.
Test in all cases: NCI anticancer screen, dose series, 48 h

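Cultured in 96-well plates, cells were exposed to test compound for 48 hours across five concentrations. Abbreviation: GI50, concentration required for 50% inhibition of growth.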 Active and inactive are the calls of the source. Rule as the data show it: active = GI50 up to about 1.1 µM and inactive = higher.

`O=C(O)c1nc(-c2ccccc2)[nH]c1C(=O)O`: the GI50 is 14.8 µM (inactive) in the experiment with NCI-H226; 10.9 µM (inactive) in the experiment on M14; 13.9 µM (inactive) in the experiment on NCI-H23; 1.04 µM (active) in the experiment on MOLT-4; 15.1 µM (inactive) in the experiment with SK-MEL-5; 0.577 µM (active) in the experiment on CCRF-CEM. The GI50 is 11.8 µM (inactive) in the experiment with MDA-N; 15.5 µM (inactive) in the experiment on TK-10; 11.8 µM (inactive) in the experiment with OVCAR-3; 27.7 µM (inactive) with NCI/ADR-RES; 14.3 µM with HCT-15; 5.32 µM (inactive) in the experiment on PC-3. The GI50 is 16 µM (inactive) in the experiment with SF-268; 2.47 µM (inactive) with SW-620; 16.6 µM (inactive) with SK-MEL-28; 14 µM (inactive) in the experiment on A549; 7.76 µM (inactive) with SK-MEL-2; 12.5 µM (inactive) with SNB-19.
As for `N#CC(C#N)=C(N)/C(C#N)=C/c1ccc2ccccc2n1`, the GI50 in the experiment on NCI-H226 is 93.5 µM (inactive); in the experiment with M14, 33.7 µM (inactive); in the experiment on NCI-H23, 31.6 µM (inactive); with MOLT-4 it was 30.3 µM (inactive); with SK-MEL-5, 23.8 µM (inactive); with CCRF-CEM it was 24.1 µM (inactive). For the same compound, the GI50 in the experiment with MDA-N was 32.7 µM (inactive); in the experiment on TK-10 it was > 100 µM (inactive); with OVCAR-3, 13.5 µM (inactive); in the experiment with NCI/ADR-RES, 34.3 µM (inactive); in the experiment on HCT-15 it was 28.8 µM; in the experiment on PC-3, 26.2 µM (inactive). Moreover, the GI50 with SF-268 is > 100 µM (inactive); with SW-620, > 10 µM (inactive); in the experiment on SK-MEL-28 it was 18.6 µM (inactive); in the experiment with A549 it was > 100 µM (inactive); with SK-MEL-2, 35 µM (inactive); with SNB-19 it was 24.3 µM (inactive).
As for `CC(C)CNP(=O)(NCC(C)C)Oc1ccc(CC(NC(=O)OCc2ccccc2)C(=O)OCc2ccccc2)cc1` (stereo not given), the GI50 in the experiment on NCI-H226 is 56.1 µM (inactive); in the experiment on M14, 24.3 µM (inactive); with NCI-H23, 15.3 µM (inactive); in the experiment with MOLT-4 it was 13.9 µM (inactive); in the experiment with SK-MEL-5 it was 20.2 µM (inactive); in the experiment with CCRF-CEM, 4.99 µM (inactive). In addition, the GI50 with MDA-N is 18.8 µM (inactive); in the experiment on TK-10 it was 31.4 µM (inactive); in the experiment on OVCAR-3 it was 3.68 µM (inactive); with NCI/ADR-RES, 28.8 µM (inactive); in the experiment with HCT-15, 26.9 µM; in the experiment with PC-3 it was 17.1 µM (inactive). The GI50 was 17.6 µM (inactive) with SF-268; 20.4 µM (inactive) in the experiment with SW-620; 15.4 µM (inactive) with SK-MEL-28; 47.5 µM (inactive) in the experiment on A549; 18.5 µM (inactive) in the experiment on SK-MEL-2; 25.2 µM (inactive) in the experiment on SNB-19.
`N#CCCN(C(=O)Nc1ccccc1)[C@H]1CCCC[C@@H]1N(C(=O)Nc1ccccc1)c1ccccc1`: the GI50 in the experiment with NCI-H226 was 77.8 µM (inactive); in the experiment on M14, 64.7 µM (inactive); in the experiment with NCI-H23 it was > 100 µM (inactive); in the experiment with MOLT-4, 25.1 µM (inactive); in the experiment with SK-MEL-5 it was > 100 µM (inactive); in the experiment with CCRF-CEM it was 30.1 µM (inactive). In addition, the GI50 is > 100 µM (inactive) with MDA-N; > 100 µM (inactive) in the experiment on TK-10; > 100 µM (inactive) in the experiment with OVCAR-3; > 100 µM (inactive) in the experiment with NCI/ADR-RES; > 100 µM in the experiment with HCT-15; 48.1 µM (inactive) with PC-3. Also, the GI50 in the experiment on SW-620 is 72.6 µM (inactive); with SK-MEL-28 it was > 100 µM (inactive); in the experiment on A549, 58.1 µM (inactive); in the experiment with SK-MEL-2, > 100 µM (inactive); in the experiment on SNB-19, 22.2 µM (inactive).
In the case of `CCn1cnc2c(NC(C)=O)ncnc21`, the GI50 in the experiment on NCI-H226, in the experiment on M14, with NCI-H23, in the experiment with MOLT-4, in the experiment with SK-MEL-5 and in the experiment on CCRF-CEM was > 100 µM (inactive) each time. Also, the GI50 with MDA-N is > 100 µM (inactive); in the experiment with TK-10, > 100 µM (inactive); with OVCAR-3, > 100 µM (inactive); with NCI/ADR-RES, > 100 µM (inactive); with HCT-15, > 100 µM; in the experiment with PC-3, > 100 µM (inactive). For the same compound, the GI50 in the experiment with SW-620, in the experiment on SK-MEL-28, in the experiment with A549, in the experiment on SK-MEL-2 and in the experiment on SNB-19 was > 100 µM (inactive) each time.
Take `CC(C)(C)OC(=O)C1C(=O)NC(=O)CC1CC(OCc1ccccc1)C(COCc1ccccc1)OCc1ccccc1` (stereo not given): the GI50 was 10.9 µM (inactive) in the experiment with NCI-H226; 14 µM (inactive) with M14; 1.97 µM (inactive) in the experiment with HL-60; 10.1 µM (inactive) in the experiment on NCI-H23; 2.88 µM (inactive) in the experiment with MOLT-4; 12.6 µM (inactive) with SK-MEL-5. The GI50 in the experiment on CCRF-CEM was 11.6 µM (inactive); in the experiment with MDA-N, 16.2 µM (inactive); in the experiment with TK-10 it was > 100 µM (inactive); with NCI/ADR-RES it was 10 µM (inactive); with HCT-15, 4.41 µM; in the experiment on PC-3, 6.44 µM (inactive). For the same compound, the GI50 in the experiment on SF-268 was 11.3 µM (inactive); with SW-620 it was 9.33 µM (inactive); with SK-MEL-28, 29.4 µM (inactive); in the experiment with A549 it was 5.06 µM (inactive); in the experiment with SNB-19 it was 20.6 µM (inactive).
As for `O=C1c2c(O)cc(O)cc2C(C2OC(CO)C(O)C(O)C2O)c2cc(CO)cc(O)c21` (stereo not given), the GI50 in the experiment on NCI-H226, in the experiment on M14, in the experiment with HL-60, in the experiment on NCI-H23, in the experiment on MOLT-4 and with SK-MEL-5 was > 100 µM (inactive) each time. Further, the GI50 in the experiment with CCRF-CEM was > 10 µM (inactive); with MDA-N, > 100 µM (inactive); in the experiment with TK-10 it was > 100 µM (inactive); with OVCAR-3 it was > 100 µM (inactive); with NCI/ADR-RES, > 100 µM (inactive); in the experiment on HCT-15 it was > 100 µM. Besides, the GI50 in the experiment with PC-3, with SF-268, in the experiment with SW-620, in the experiment on SK-MEL-28, in the experiment on A549 and with SNB-19 was > 100 µM (inactive) each time.
In the case of `Cn1c2ccccc2c2c3c(c4c5ccccc5n(C)c4c21)C(=O)N(c1ccccc1)C3=O`, the GI50 in the experiment on NCI-H226, in the experiment with M14, with NCI-H23, in the experiment on MOLT-4, in the experiment on SK-MEL-5 and with CCRF-CEM was > 100 µM (inactive) each time. Moreover, the GI50 with MDA-N was > 100 µM (inactive); with TK-10, > 100 µM (inactive); with OVCAR-3, > 100 µM (inactive); in the experiment on NCI/ADR-RES, > 100 µM (inactive); with HCT-15, > 100 µM; in the experiment on PC-3, > 100 µM (inactive). Moreover, the GI50 in the experiment on SW-620, in the experiment on SK-MEL-28, in the experiment on A549, with SK-MEL-2 and in the experiment with SNB-19 was > 100 µM (inactive) in each case.
